pEC50: −log10 of the molar value.

These results are taken from patent US11021446B2 (NOVARTIS AG, priority 2013, dated 2021).

The target of the assay is T1, human Farnesoid X Receptor (FXR) ligand binding domain (GST-FXR LBD) (Homo sapiens, UniProt Q96RI1).
T1 construct: purchased Invitrogen
T1 sequence (Q96RI1 193-472 isoform Q96RI1-2): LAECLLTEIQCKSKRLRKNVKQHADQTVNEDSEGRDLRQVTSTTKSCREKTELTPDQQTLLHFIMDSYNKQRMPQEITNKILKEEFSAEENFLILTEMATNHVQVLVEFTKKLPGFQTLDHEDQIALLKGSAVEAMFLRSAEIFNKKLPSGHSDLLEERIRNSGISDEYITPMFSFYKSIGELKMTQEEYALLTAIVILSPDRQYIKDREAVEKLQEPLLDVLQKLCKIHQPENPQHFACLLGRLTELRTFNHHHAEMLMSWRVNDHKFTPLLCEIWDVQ
Put plainly: Human GST-FXR LBD co-activator interaction assay (FXR HTRF assay). The class given is biochemical. Conditions: GST-FXR LBD interaction with biotin-labeled SRC-1 peptide, FRET, response relative to GW4064, read-out: FXR coactivator interaction assay (HTRF). A general note: TR-FRET usually uses a lanthanide donor and a delayed reading to cut background.
Take `Cn1nc(C(=O)N(CC(=O)Nc2cc(C(=O)O)ccc2F)Cc2ccccc2F)c2c1-c1cc(Cl)ccc1OC2` [Compound 64, 3-(2-(8-chloro-N-(2-fluorobenzyl)-1-methyl-1,4-dihydrochromeno[4,3-c]pyrazole-3-carboxamido)acetamido)-4-fluorobenzoic Acid]: the pEC50 was 9.22.
The same measure for `Cn1nc(C(=O)N(CCNc2cc(C(=O)O)ccc2F)Cc2cccc(F)c2)c2c1-c1cc(Cl)ccc1OC2` [Compound 65, 3-((2-(8-chloro-N-(3-fluorobenzyl)-1-methyl-1,4-dihydrochromeno[4,3-c]pyrazole-3-carboxamido)ethyl)amino)-4-fluorobenzoic Acid]: 8.15; for `Cn1nc(C(=O)N(CCNc2cc(C(=O)O)ccc2F)Cc2ccccc2F)c2c1-c1cc(F)ccc1OC2` [Compound 69, 4-fluoro-3-((2-(8-fluoro-N-(2-fluorobenzyl)-1-methyl-1,4-dihydrochromeno[4,3-c]pyrazole-3-carboxamido)ethyl)amino)benzoic acid]: 7.60; for `Cn1nc(C(=O)N(CCNc2cc(C(=O)O)ccc2F)Cc2ccccc2F)c2c1-c1ccccc1OC2` [Compound 70, 4-fluoro-3-((2-(N-(2-fluorobenzyl)-1-methyl-1,4-dihydrochromeno[4,3-c]pyrazole-3-carboxamido)ethyl)amino)benzoic acid]: 7.09.
Take `Cn1nc(C(=O)N(CCNc2cc(C(=O)O)ccc2F)Cc2ccccc2)c2c1-c1cc(F)ccc1OC2` [Compound 71, 3-((2-(N-benzyl-8-fluoro-1-methyl-1,4-dihydrochromeno[4,3-c]pyrazole-3-carboxamido)ethyl)amino)-4-fluorobenzoic acid]: the pEC50 is 7.66.
`Cn1nc(C(=O)N(CCNc2cc(C(=O)O)ccc2F)Cc2ccccc2)c2c1-c1cc(Cl)ccc1OC2` [Compound 72, 3-((2-(N-benzyl-8-chloro-1-methyl-1,4-dihydrochromeno[4,3-c]pyrazole-3-carboxamido)ethyl)amino)-4-fluorobenzoic acid]: the pEC50 was 8.59.
With `Cn1nc(C(=O)N(CCNc2cc(C(=O)O)ccc2F)Cc2cccc(F)c2)c2c1-c1cc(F)c(F)cc1OC2` [Compound 73, 3-((2-(7,8-difluoro-N-(3-fluorobenzyl)-1-methyl-1,4-dihydrochromeno[4,3-c]pyrazole-3-carboxamido)ethyl)amino)-4-fluorobenzoic acid], the pEC50 was 7.70.
Regarding `Cn1nc(C(=O)N(CCNc2cc(C(=O)O)ccc2F)Cc2ccccc2)c2c1-c1cc(F)c(F)cc1OC2` [Compound 74, 3-((2-(N-benzyl-7,8-difluoro-1-methyl-1,4-dihydrochromeno[4,3-c]pyrazole-3-carboxamido)ethyl)amino)-4-fluorobenzoic acid], the pEC50 is 7.26.
For the compound `Cn1nc(C(=O)N(Cc2ccccc2)Cc2ccc(C(=O)O)cc2)c2c1-c1cc(Cl)ccc1OC2` [Compound 75, 4-((N-benzyl-8-chloro-1-methyl-1,4-dihydrochromeno[4,3-c]pyrazole-3-carboxamido)methyl)benzoic Acid], the pEC50 was 8.22.
`Cn1nc(C(=O)N(Cc2ccccc2)Cc2ccc(C(=O)O)cc2F)c2c1-c1cc(Cl)ccc1OC2` [Compound 76, 4-((N-benzyl-8-chloro-1-methyl-1,4-dihydrochromeno[4,3-c]pyrazole-3-carboxamido)methyl)-3-fluorobenzoic acid]: the pEC50 was 8.02.
Regarding `Cn1nc(C(=O)N(Cc2ccc(C(=O)O)cc2)Cc2cccc(F)c2)c2c1-c1cc(F)ccc1OC2` [Compound 77, 4-((8-fluoro-N-(3-fluorobenzyl)-1-methyl-1,4-dihydrochromeno[4,3-c]pyrazole-3-carboxamido)methyl)benzoic acid], the pEC50 is 8.10.
In the case of `Cn1nc(C(=O)N(Cc2ccc(C(=O)O)cc2)Cc2cc(F)cc(F)c2)c2c1-c1cc(Cl)ccc1OC2` [Compound 78, 4-((8-chloro-N-(3,5-difluorobenzyl)-1-methyl-1,4-dihydrochromeno[4,3-c]pyrazole-3-carboxamido)methyl)benzoic acid], the pEC50 is 8.08.
On to `Cn1nc(C(=O)N(Cc2ccccc2)Cc2ccc(C(=O)O)cc2F)c2c1-c1cc(F)ccc1OC2` [Compound 79, 4-((N-benzyl-8-fluoro-1-methyl-1,4-dihydrochromeno[4,3-c]pyrazole-3-carboxamido)methyl)-3-fluorobenzoic acid], for which the pEC50 was 7.66.
`Cc1cccc(CN(Cc2ccc(C(=O)O)cc2)C(=O)c2nn(C)c3c2COc2ccc(Cl)cc2-3)c1` [Compound 80, 4-((8-chloro-1-methyl-N-(3-methylbenzyl)-1,4-dihydrochromeno[4,3-c]pyrazole-3-carboxamido)methyl)benzoic acid]: the pEC50 was 7.80.
On to `Cn1nc(C(=O)N(Cc2ccc(C(=O)O)cc2)Cc2cccc(F)c2F)c2c1-c1cc(Cl)ccc1OC2` [Compound 81, 4-((8-chloro-N-(2,3-difluorobenzyl)-1-methyl-1,4-dihydrochromeno[4,3-c]pyrazole-3-carboxamido)methyl)benzoic acid], for which the pEC50 is 7.68.
On to `Cc1cc(F)cc(CN(Cc2ccc(C(=O)O)cc2)C(=O)c2nn(C)c3c2COc2ccc(Cl)cc2-3)c1` [Compound 82, 4-((8-chloro-N-(3-fluoro-5-methylbenzyl)-1-methyl-1,4-dihydrochromeno[4,3-c]pyrazole-3-carboxamido)methyl)benzoic acid], for which the pEC50 was 7.92.
The same measure for `Cn1nc(C(=O)N(Cc2ccc(C(=O)O)cc2)Cc2cc(F)cc(F)c2)c2c1-c1cc(F)ccc1OC2` [Compound 83, 4-((N-(3,5-difluorobenzyl)-8-fluoro-1-methyl-1,4-dihydrochromeno[4,3-c]pyrazole-3-carboxamido)methyl)benzoic acid]: 7.85; for `Cc1cccc(CN(Cc2ccc(C(=O)O)cc2F)C(=O)c2nn(C)c3c2COc2ccc(Cl)cc2-3)c1` [Compound 84, 4-((8-chloro-1-methyl-N-(3-methylbenzyl)-1,4-dihydrochromeno[4,3-c]pyrazole-3-carboxamido)methyl)-3-fluorobenzoic acid]: 7.74; for `Cc1cccc(CN(Cc2ccc(C(=O)O)cc2F)C(=O)c2nn(C)c3c2COc2ccc(F)cc2-3)c1` [Compound 85, 3-fluoro-4-((8-fluoro-1-methyl-N-(3-methylbenzyl)-1,4-dihydrochromeno[4,3-c]pyrazole-3-carboxamido)methyl)benzoic acid]: 7.46.
On to `Cn1nc(C(=O)N(Cc2ccc(C(=O)O)cc2)Cc2ccc3[nH]ccc3c2)c2c1-c1cc(Cl)ccc1OC2` [Compound 86, 4-((N-((1H-indol-5-yl)methyl)-8-chloro-1-methyl-1,4-dihydrochromeno[4,3-c]pyrazole-3-carboxamido)methyl)benzoic acid], for which the pEC50 was 7.92.
As for `Cn1nc(C(=O)N(Cc2ccc(C(=O)O)nc2)Cc2cccc(F)c2)c2c1-c1cc(Cl)ccc1OC2` [Compound 87, 5-((8-chloro-N-(3-fluorobenzyl)-1-methyl-1,4-dihydrochromeno[4,3-c]pyrazole-3-carboxamido)methyl)picolinic acid], the pEC50 was 7.55.
The same measure for `Cn1nc(C(=O)N(Cc2ccc(C(=O)O)cc2)Cc2cncc(F)c2)c2c1-c1cc(Cl)ccc1OC2` [Compound 88, 4-((8-chloro-N-((5-fluoropyridin-3-yl)methyl)-1-methyl-1,4-dihydrochromeno[4,3-c]pyrazole-3-carboxamido)methyl)benzoic acid]: 7.82.
With `Cn1nc(C(=O)N(Cc2cccc(F)c2)Cc2ccc(C(=O)O)c(F)c2)c2c1-c1cc(Cl)ccc1OC2` [Compound 90, 4-((8-chloro-N-(3-fluorobenzyl)-1-methyl-1,4-dihydrochromeno[4,3-c]pyrazole-3-carboxamido)methyl)-2-fluorobenzoic acid] the figure was 8.30; with `Cn1nc(C(=O)N(Cc2ccccc2)Cc2ccc(C(=O)O)c(F)c2)c2c1-c1cc(Cl)ccc1OC2` [Compound 91, 4-((N-benzyl-8-chloro-1-methyl-1,4-dihydrochromeno[4,3-c]pyrazole-3-carboxamido)methyl)-2-fluorobenzoic acid], 8.19.
With `Cn1nc(C(=O)N(Cc2ccc(C(=O)O)cc2)Cc2ccccc2F)c2c1-c1cc(Cl)ccc1OC2` [Compound 92, 4-((8-chloro-N-(2-fluorobenzyl)-1-methyl-1,4-dihydrochromeno[4,3-c]pyrazole-3-carboxamido)methyl)benzoic acid] the figure was 7.85.
Take `Cn1nc(C(=O)N(Cc2ccccc2F)Cc2ccc(C(=O)O)cc2F)c2c1-c1cc(Cl)ccc1OC2` [Compound 93, 4-((8-chloro-N-(2-fluorobenzyl)-1-methyl-1,4-dihydrochromeno[4,3-c]pyrazole-3-carboxamido)methyl)-3-fluorobenzoic acid]: the pEC50 is 7.89.
The same measure for `Cn1nc(C(=O)N(Cc2ccccc2F)Cc2ccc(C(=O)O)cc2F)c2c1-c1cc(F)ccc1OC2` [Compound 94, 3-fluoro-4-((8-fluoro-N-(2-fluorobenzyl)-1-methyl-1,4-dihydrochromeno[4,3-c]pyrazole-3-carboxamido)methyl)benzoic acid]: 7.49; for `Cn1nc(C(=O)N(Cc2ccc(C(=O)O)cc2)Cc2cccc(F)c2)c2c1-c1cc(Cl)ccc1OC2` [Compound 95, 4-((8-chloro-N-(3-fluorobenzyl)-1-methyl-1,4-dihydrochromeno[4,3-c]pyrazole-3-carboxamido)methyl)benzoic acid]: 8.46.
Take `Cn1nc(C(=O)N(Cc2cccc(F)c2)Cc2ccc(C(=O)O)cc2F)c2c1-c1cc(Cl)ccc1OC2` [Compound 96, 4-((8-chloro-N-(3-fluorobenzyl)-1-methyl-1,4-dihydrochromeno[4,3-c]pyrazole-3-carboxamido)methyl)-3-fluorobenzoic acid]: the pEC50 is 8.44.
